According to patent US10351519B2, “Sulfamate derivative compounds, processes for preparing them and their uses” (BIO-PHARM SOLUTIONS CO., LTD., priority 2016, dated 2019):

Key:
Type in all cases: in vivo
ICR mice [1] = assay: Tail-flick test; conditions: orally
Description: To examine the pain relief effect of the sulfamate compounds, a tail-flick test was conducted, referring to Current Protocols in Neuroscience; Behavioral Neuroscience Unit 8.9.
ICR mice (male, 25-30 g; Orient Bio, Korea) were habituated before test (in test room) for 1 hour. Animals were fasted 2 hr before administration of compounds. Each of the tested compound were orally administered at the 1˜3 dose, 10 ul/g, by bw (n=4-6/group). All compounds were dissolved in a vehicle of 30% (v/v) PEG 400 or 20% (v/v) Tween 80. The control group was treated the vehicle without compounds.
After the administration of compounds, the mice tail were put on a tail-flick analgesia meter. To avoid tissue damage, maximal exposure time to pain stimuli was restricted to 15 seconds. The withdrawal latency was measured to the time to the point when each mouse responded. The relative values compared to the control (% control) were calculated.

ICR mice [2] = assay: Chemical induced seizure model (BIC); conditions: for ED50: Mus musculus, ip
Description: Male ICR mice (purchased from Orient Bio Inc. Korea) of body weight 19-26 g were used for these studies. The test materials were administered intraperitoneal route in a volume of 10 ul/g weight. Pharmacological effects of all the test materials were evaluated to compared test groups (n=6) with a control group (n=6). Control group was administrated vehicle, only. The peak time was determined by administration test material's random dose for 0.5-4 hour. The time that the most protect was defined peak time and ED50 was determined by other dose administration at peak time. BIC was dissolved in 0.9% saline and administered subcutaneously (s.c.) at its CD97 (convulsive dose 97%) the dose of BIC that produced clonic seizures in 97% into a loose fold of skin in the midline of the neck in a volume of 10 ul/g body weight. The animals were then transferred to observation cages and observed continuously for 30 min. Clonic seizure was elicited in approximately 95% of control group. Protection was defined as complete absence of a clonic seizure over the 30-min observation period. The time that the most protect was defined peak time and ED50 was determined by other dose administration at peak time. The effective dose of compound necessary to protect against seizures to 50% of controls (i.e. ED50) was determined by log probit analysis using Excel 2007 (Microsoft).

Sprague-Dawley rats = assay: Antiallodynic activity on post operative-induced pain model; conditions: intraperitoneal injection; for ED50: Rattus norvegicus, ip, read-out: Post Operation ED50
Source text: Male Sprague-Dawley rats (230-250 g, Orient Bio, Korea), were habituated at least 3 days before surgery and were allowed free access to food and water throughout the experimentation. Room temperature and humidity were maintained at 24±2 and 50±10%, respectively. The process of performing the post-operation model's surgery was adapted from Brennan et al (1996). At first, rats with allodynia (threshold valueless than 8 g) were excluded in Pre-von Frey Test. During the post-operation surgery, rats were anesthetized under gaseous anesthesia with 2% isoflurane. The rat was placed, lying face down on 37 degree warm plate to prevent against hypothermia. The ipsilateral plantar aspect (left side) of the hind paw was prepared in a sterile manner with a 10% povidone-iodine solution. A 1 cm longitudinal incision was made with a number 10 blade, through the skin and fascia of the ipsilateral plantar aspect of the foot, starting from 0.5 cm from the proximal edge of the heel and extending toward the toes. Rats' plantar muscles were elevated and incised longitudinally. After hemostasis with gentle pressure, the skin was opposed with 2 mattress sutures of 4-0 Dafilon.
After 24 hours of recovery, rats with a good response (threshold less than 4 g) in Pre-von Frey Test were selected. According to this response, we made three groups with each group having equal average responses: Group 1, post-operation and drug treated; Group 2, post-operation and vehicle treated; Group 3, no post-operation and vehicle treated. In this study, Group 3 was the sham control (positive) group. […]
For efficacy measure, the threshold value of group C was assigned 100% efficacy, and the percentage of the threshold values of group A compared to group C (for each different dose level) were calculated as the efficacies. Base on these efficacy values, ED50 was calculated using log fitting. […]
For pain threshold test, all animals were placed in a stainless steel meshed chamber and habituated for 30 min in the test cage. The tactile sensitivity of the ipsilateral hind paw was measured using the up-and-down method (Dixon, 1980) with seven von Frey monofilaments (0.4, 1, 2, 4, 6, 8, and 15 g) using 3 trials. The 50% paw withdrawal threshold for each paw was calculated using the following formula: [Xth] log=[vFr] log+ky, where [vFr] is the force of the last von Frey filament used, k=0.2249 which is the average interval (in log units) between the von Frey monofilaments, y which is a value that depends upon the pattern of withdrawal responses, and Xth which is the threshold value (Dixon, 1980). […]
The relative values compared to the sham (% control) were calculated and shown in Table 7, which show an antiallodynic effect of the compound of examples on Post operation-induced pain model in rats.

Structure (SMILES): C[C@@H](OS(N)(=O)=O)[C@H](O)c1c(Cl)cccc1Cl [Example 8, (1R, 2R)-1-(2,6-dichlorophenyl)-1-hydroxypropan-2-yl sulfamate]
- tail-flick test Dose (ICR mice [1]): >200 mg/kg
- BIC(ip) Peak Time (ICR mice [2]): 1 h
- ED50 (ICR mice [2]): 73.9 mg/kg
- ED50 (Sprague-Dawley rats): 4.2 mg/kg
- Post Operation Peak Time (Sprague-Dawley rats): 0.5 h

Structure (SMILES): C[C@H](OS(N)(=O)=O)[C@@H](O)c1c(Cl)cccc1Cl [Example 7, (1S, 2S)-1-(2,6-dichlorophenyl)-1-hydroxypropan-2-yl sulfamate]
- tail-flick test Peak Time (ICR mice [1]): 1~2 hr
- tail-flick test efficacy % (ICR mice [1]; 100 mg/kg): 100 (19.0%)
- BIC(ip) Peak Time (ICR mice [2]): 1 h
- ED50 (ICR mice [2]): 30.8 mg/kg
- ED50 (Sprague-Dawley rats): 5.8 mg/kg
- Post Operation Peak Time (Sprague-Dawley rats): 0.5 h
